Where a SMILES comes first, the peptide text is derived from it. Side-chain parts run from the residue outwards. [ ]: non-standard residue; d: D form. The star is where a group is joined. Lys(α,ε-(ArgTrp)2) = N=C(N)NCCC[C@H](N)C(=O)N[C@@H](Cc1c[nH]c2ccccc12)C(=O)NCCCC[C@H](NC(=O)[C@H](Cc1c[nH]c2ccccc12)NC(=O)[C@@H](N)CCCNC(=N)N)C(=O)*; βAla = NCCC(=O)O
Tests used:
Type in all cases: cell-based
gram-positive MRSA = test: LIVE/DEAD staining assay, membrane damage; conditions: 1 hr incubation; (RW)4D 10 uM
[1] = tested on: gram-negative A. baumannii; test: LIVE/DEAD staining assay, membrane damage; conditions: 1 hr incubation; (RW)4D 10 uM
E. coli RP437 biofilms [2] = test: biofilm assay on stainless steel coupons with LIVE/DEAD staining; conditions: for Biofilm coefficients: Dead cells / Biofilm coefficients: Live cells / Biofilm coefficients: Total biofilms: 24 hours
Method: The stainless steel (S.S.) coupons were polished using a fine 3M SandBlaster sandpaper, then autoclaved for sterilization. […] For all the treatments, duplicate coupons were tested. To analyze the E. coli biofilms using fluorescence microscopy, the biofilms were stained with […] bacterial viability kit (Cat# L7012, Invitrogen Corporation, California). Each S.S. coupon was washed gently by dipping vertically in 0.85% NaCl buffer three times (change to fresh buffer after each dipping). Then, they were soaked in 1 mL of 0.85% NaCl buffer containing 3 μl of staining component A and B (1:4) in the dark for 15 mins. Images were taken by AXIO Imager.M1 (Carl Zeiss, German). Five images were taken for each sample. Data were obtained and are presented in Table 3, below, as well as in FIG. 5.

E. coli RP437 biofilms [3] = test: CFU assay of biofilm inhibition; conditions: 25 μg/mL, 24 hours
Method: Twenty-four hour biofilms of E. coli RP437 were grown on stainless steel coupons in LB medium containing up to 100 μg/mL of the three antimicrobial peptides—dendrimer, hexamer, and octamer. CFU counts were used to determine the extent of inhibition. The procedure of the study is as follows.
Overnight cultures of E. coli RP437 grown in LB medium were used to inoculate 5 mL of LB supplemented with up to 100 μg/mL of each peptide and polished, sterile 316L stainless steel coupons (1.2 cm×0.6 cm×0.1 cm). The cultures were incubated at 37° C. for 24 hours. The coupons were then removed from the bacterial culture using sterile forceps and washed three times in 0.85% NaCl buffer and placed in round-bottom tubes containing 3 mL of fresh NaCl buffer. These were then sonicated for 1.5 minutes in a water bath. The NaCl buffer containing bacterial cells was serially diluted and 60 μL of 1000 and 5000 fold dilutions were plated on LB agar plates. The plates were incubated at 37° C. overnight. The number of CFUs for each sample was counted after incubation. The experiment was conducted in duplicate.

Row | Compound | membrane damage / killing by Live/Dead staining (gram-positive MRSA) | membrane damage / killing by Live/Dead staining [1] | Total biofilm formation compared with blank control (ANOVA) (E. coli RP437 biofilms [2]; 25 μg/mL) | Biofilm coefficients: Dead cells (E. coli RP437 biofilms [2]; 25 μg/mL) | Biofilm coefficients: Live cells (E. coli RP437 biofilms [2]; 25 μg/mL) | Biofilm coefficients: Total biofilms (E. coli RP437 biofilms [2]; 25 μg/mL) | Total biofilm formation compared with blank control (ANOVA) (E. coli RP437 biofilms [2]; 50 μg/mL) | Biofilm coefficients: Dead cells (E. coli RP437 biofilms [2]; 50 μg/mL) | Biofilm coefficients: Live cells (E. coli RP437 biofilms [2]; 50 μg/mL) | Biofilm coefficients: Total biofilms (E. coli RP437 biofilms [2]; 50 μg/mL) | reduction of viable biofilm cell counts (E. coli RP437 biofilms [3])
1 | CN[C@H](CC(C)C)C(=O)N[C@H]1C(=O)N[C@@H](CC(N)=O)C(=O)N[C@H]2C(=O)N[C@H]3C(=O)N[C@H](C(=O)N[C@H](C(=O)O)c4cc(O)cc(O)c4-c4cc3ccc4O)[C@H](O)c3ccc(c(Cl)c3)Oc3cc2cc(c3O[C@@H]2O[C@H](CO)[C@@H](O)[C@H](O)[C@H]2O[C@H]2C[C@](C)(N)[C@H](O)[C@H](C)O2)Oc2ccc(cc2Cl)[C@H]1O [vancomycin, reference compound] | did not actively kill | did not actively kill | – | – | – | – | – | – | – | – | –
2 | N=C(N)NCCC[C@H](N)C(=O)N[C@@H](Cc1c[nH]c2ccccc12)C(=O)NCCCC[C@H](NC(=O)[C@H](Cc1c[nH]c2ccccc12)NC(=O)[C@@H](N)CCCNC(=N)N)C(=O)NCCCC[C@H](NC(=O)[C@H](CCCCNC(=O)[C@H](Cc1c[nH]c2ccccc12)NC(=O)[C@@H](N)CCCNC(=N)N)NC(=O)[C@H](Cc1c[nH]c2ccccc12)NC(=O)[C@@H](N)CCCNC(=N)N)C(=O)NCCC(N)=O [Dendrimer] (H-RWK([Trp-Arg])K(Lys(α,ε-(ArgTrp)2))[βAla]-NH2; N-terminus and C-terminus assumed) | – | – | significantly reduced | 7.11% ± 1.93% | 4.42% ± 2.30% | 11.16% ± 3.09% | significantly reduced | 5.05% ± 1.47% | 2.32% ± 1.12% | 7.06% ± 1.91% | ineffective

Source: patent US7902327B2, “Dendrimeric peptides, pharmaceutical compositions and methods of using the same” (New York University School of Medicine, priority 2007, dated 2011)
